Series [1] concerns the target T1, human P450 1A1 (Homo sapiens, UniProt P04798).
T1 sequence (P04798 1-512): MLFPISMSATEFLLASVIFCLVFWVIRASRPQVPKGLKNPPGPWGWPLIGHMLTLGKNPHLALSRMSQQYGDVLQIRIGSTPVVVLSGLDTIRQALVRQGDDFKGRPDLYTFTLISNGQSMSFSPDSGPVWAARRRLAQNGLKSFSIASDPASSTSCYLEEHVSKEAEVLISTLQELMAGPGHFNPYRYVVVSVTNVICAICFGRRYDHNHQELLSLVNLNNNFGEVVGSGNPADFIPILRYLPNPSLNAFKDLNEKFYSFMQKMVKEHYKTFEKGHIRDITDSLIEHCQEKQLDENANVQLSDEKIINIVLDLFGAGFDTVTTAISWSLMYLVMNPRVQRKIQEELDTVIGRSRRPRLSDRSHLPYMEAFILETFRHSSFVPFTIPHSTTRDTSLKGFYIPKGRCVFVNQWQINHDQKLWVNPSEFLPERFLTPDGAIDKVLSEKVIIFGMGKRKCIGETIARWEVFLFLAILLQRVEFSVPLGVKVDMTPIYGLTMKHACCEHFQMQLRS
Nature of the series: EROD. It counts as biochemical. The settings on record: for IC50 P450 1A1: human P450 1A1 supersomes, EROD, 5 μM substrate, 37 °C, Dixon plot.

Another series deals with T2, CYP1A1 (Homo sapiens, UniProt P04798).
T2 sequence (P04798 1-512): T1 sequence (P04798 1-512)
Nature of the series: Mechanism-based. It counts as biochemical. The settings on record: human, human P450 1A1 supersomes, pH 7.6, probe 7-ethoxyresorufin (EROD).

The target in series [2] is T1, human P450 1A1. Description: Mechanism-based. It counts as biochemical.
The target of series [3] is T3, human P450 1A2 (Homo sapiens, UniProt P05177).
T3 sequence (P05177 1-516): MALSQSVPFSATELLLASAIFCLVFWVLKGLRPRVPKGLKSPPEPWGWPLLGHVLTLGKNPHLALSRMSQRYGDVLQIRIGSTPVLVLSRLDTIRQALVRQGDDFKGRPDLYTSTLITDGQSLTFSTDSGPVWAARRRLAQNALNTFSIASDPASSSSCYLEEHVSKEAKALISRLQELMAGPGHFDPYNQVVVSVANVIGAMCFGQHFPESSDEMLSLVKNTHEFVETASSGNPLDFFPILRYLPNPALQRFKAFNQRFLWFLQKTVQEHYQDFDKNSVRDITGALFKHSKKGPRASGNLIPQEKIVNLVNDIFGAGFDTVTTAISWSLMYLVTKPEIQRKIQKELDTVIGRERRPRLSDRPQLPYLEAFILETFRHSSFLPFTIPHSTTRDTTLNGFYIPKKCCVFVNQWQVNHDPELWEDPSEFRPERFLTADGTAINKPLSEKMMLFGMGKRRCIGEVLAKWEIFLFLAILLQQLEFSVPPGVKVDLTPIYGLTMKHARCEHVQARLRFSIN
Nature of the series: Mechanism-based. It counts as biochemical.

The target in the next series is T4, human P450 2A6 (Homo sapiens, UniProt P11509).
T4 sequence (P11509 1-494): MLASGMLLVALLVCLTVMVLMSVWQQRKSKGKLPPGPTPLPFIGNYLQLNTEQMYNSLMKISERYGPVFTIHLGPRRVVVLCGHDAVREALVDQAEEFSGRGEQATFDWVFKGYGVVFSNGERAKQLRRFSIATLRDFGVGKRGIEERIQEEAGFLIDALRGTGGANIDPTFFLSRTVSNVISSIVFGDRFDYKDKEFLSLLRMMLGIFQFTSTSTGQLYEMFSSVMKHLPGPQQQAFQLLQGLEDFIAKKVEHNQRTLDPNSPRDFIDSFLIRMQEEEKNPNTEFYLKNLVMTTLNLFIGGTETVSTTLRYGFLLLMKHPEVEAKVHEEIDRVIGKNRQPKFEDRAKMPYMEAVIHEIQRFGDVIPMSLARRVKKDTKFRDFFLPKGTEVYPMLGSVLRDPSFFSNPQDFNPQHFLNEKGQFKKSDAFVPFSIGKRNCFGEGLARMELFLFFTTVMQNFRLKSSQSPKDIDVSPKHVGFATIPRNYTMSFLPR
Description: Coumarin 7-hydroxylation inhibition assay in supersomes.

A further series addresses T5, rat P4502B1 (Rattus norvegicus, UniProt P00176).
T5 sequence (P00176 1-491): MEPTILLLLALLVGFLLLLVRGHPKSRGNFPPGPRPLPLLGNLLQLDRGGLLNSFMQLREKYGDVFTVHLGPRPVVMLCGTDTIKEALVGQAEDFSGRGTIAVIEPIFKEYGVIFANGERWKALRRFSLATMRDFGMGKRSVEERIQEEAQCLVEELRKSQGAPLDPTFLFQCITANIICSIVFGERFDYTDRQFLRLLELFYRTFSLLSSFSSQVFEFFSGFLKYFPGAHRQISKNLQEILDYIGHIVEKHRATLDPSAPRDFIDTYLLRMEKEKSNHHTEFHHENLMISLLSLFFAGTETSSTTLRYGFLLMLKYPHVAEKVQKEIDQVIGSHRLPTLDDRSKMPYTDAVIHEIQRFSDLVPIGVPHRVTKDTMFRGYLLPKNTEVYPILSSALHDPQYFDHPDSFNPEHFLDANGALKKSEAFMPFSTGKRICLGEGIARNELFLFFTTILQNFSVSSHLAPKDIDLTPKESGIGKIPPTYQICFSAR
Description: PROD.

Series [4] has as its target T3, human P450 1A2. Description: MROD. It counts as biochemical.
Where [5] appears, read: 5 min preincubation in presence and absence of NADPH.

Entries after “also recorded” stand apart in the source; their conditions may differ. Read-outs that look alike come from different tables or passages of the source.

A word on the IC50: it is the concentration that inhibits the measured activity by half. High values mean lower potency, low ones higher potency. Consider `Cc1cc(Cl)c2c(c1N)C(=O)c1ccccc1C2=O` [Compound 1, 1-Amino-4-chloro-2-methylanthracene-9,10-dione], for which the “IC50 P450 1A1” value against human P450 1A1 [1] is on record as “submicromolar potency”. This compound had a KI (inactivation) at 6 min on CYP1A1 of 5.38 µM. For the same compound, the “Mechanism-based inhibition of P450 1A1 (result in words)” value (shortened to “Mechanism-based inhibition of P450 1A1”) at human P450 1A1 [2] (setting [5]) is recorded as “act as a mechanism-based inhibitor; also recorded: demonstrated mechanism-based inhibition”. For the same compound, the kinact at human P450 1A1 [2] (read-out: Kinactivation (rate constant for maximal inactivation at saturation), P450 1A1) was 0.0262 s⁻¹; at human P450 1A2 [3] (read-out: Kinactivation, P450 1A2), 0.00133 s⁻¹. At human P450 1A2 [3], this compound had a Ki of 0.5 µM. In addition, the “Mechanism-based inhibition of P450 1A2 (result in words)” value (“Mechanism-based inhibition of P450 1A2” below) at human P450 1A2 [3] (setting [5]) is “act as a mechanism-based inhibitor; also recorded: demonstrated mechanism-based inhibition”. The IC50 at human P450 2A6 and against rat P4502B1 was over 50 µM in each case.

With `CC(C)(C)C1=CC(=O)c2c(ccc(C(C)(C)C)c2O)C1=O` [Compound 8, 2,6-Di-tert-butyl-5-hydroxynaphthalene-1,4-dione], the half-maximal inhibitory concentration (IC50) at human P450 1A1 [1] is over 50 µM; against human P450 1A2 [4] it was over 50 µM; on human P450 2A6 it was over 50 µM; against rat P4502B1, 5.66 µM. On human P450 1A1 [1], the “IC50 P450 1A1” value is listed as “did not inhibit”. Moreover, the “IC50 P450 1A2” value on human P450 1A2 [4] (human P450 1A2 supersomes, MROD, 5 μM substrate, 37 °C, Dixon plot) is given as “did not inhibit”.

For the compound `Nc1ccc(O)c2c1C(=O)c1ccccc1C2=O` [Compound 2, 1-amino-4-hydroxyanthracene-9,10-dione], the half-inhibitory concentration (IC50) on human P450 1A1 [1] was 2.09 µM; on human P450 1A2 [4] it was 0.53 µM; against human P450 2A6 it was over 50 µM; at rat P4502B1, 2.15 µM. For the same compound, the “Mechanism-based inhibition of P450 1A1” value at human P450 1A1 [2] (setting [5]) is given as “did not show mechanism-based inhibition; also recorded: does not demonstrate mechanism-based inhibition”. In addition, the “Mechanism-based inhibition of P450 1A2” value at human P450 1A2 [3] (setting [5]) was “did not show mechanism-based inhibition; also recorded: does not demonstrate mechanism-based inhibition”.

With `Cc1cc(O)c2c(c1)C(=O)c1cc(O)cc(O)c1C2=O` [emodin, Emodin, reference compound], on human P450 1A1 [2], the “Mechanism-based inhibition of P450 1A1” value is recorded as “did not cause mechanism-based inhibition”. Further, on human P450 1A2 [3], the “Mechanism-based inhibition of P450 1A2” value is “did not cause mechanism-based inhibition”. In addition, the values for the IC50 against human P450 2A6 and at rat P4502B1 were over 50 µM and 14.9 µM, respectively.

The values are drawn from paper PMC5461952 (Chemical research in toxicology, 2012).
